# Experimental data from patent US20140329797A1, “SUBSTITUTED OXADIAZOLYL PYRIDINONES AND OXADIAZOLYL PYRIDAZINONES AS HIF INHIBITORS” (Bayer Intellectual Property GmbH, priority 2011, published 2014).
# Test system: HCT 116 cells transfected with a luciferase reporter under the control of an HIF-responsive sequence
# Assay: HIF-luciferase assay
# Format: cell-based
# Conditions: Homo sapiens; HCT 116 HIF-luciferase reporter cells, hypoxia chamber (1% O2), 24 h; in some cases means of up to four individual determinations
# Protocol: B-1. HIF-Luciferase Assay
# HCT 116 cells were transfected in a stable manner with a plasmid which contained a luciferase reporter under the control of an HIF-responsive sequence. These cells were sown in microtitre plates [20000 cells/cavity in RPMI 1640 medium with 10% foetal calf serum (FCS) and 100 μg/ml of hygromycin]. Incubation was carried out overnight under standard conditions (5% CO2, 21% O2, 37° C., moistened). The following morning the cells were incubated with various concentrations of the test substances (0-10 μmol/l) in a hypoxia chamber (1% O2). After 24 h, Bright Glo reagent (Promega, Wisconsin, USA) was added in accordance with the manufacturer's instructions, and after 5 min the luminescence was measured. Cells which were incubated under normoxia served as background controls.
row,SMILES,IC50
1,"O=C(c1cccc(Cn2cc(-c3nc(-c4ccc(OC(F)(F)F)cc4)no3)ccc2=O)c1)N1CCOCC1 [Example 34, 1-[3-(Morpholin-4-ylcarbonyl)benzyl]-5-{3-[4-(trifluoromethoxy)phenyl]-1,2,4-oxadiazol-5-yl}pyridin-2(1H)-one]",4 nM
2,"CC(C)(c1ccc(-c2noc(-c3ccc(=O)n(Cc4cccc(C(=O)N5CCOCC5)c4)c3)n2)cc1)C(F)(F)F [Example 35, 1-[3-(Morpholin-4-ylcarbonyl)benzyl]-5-{3-[4-(1,1,1-trifluoro-2-methylpropan-2-yl)phenyl]-1,2,4-oxadiazol-5-yl}pyridin-2(1H)-one]",20 nM
3,"CN1CCN(C(=O)c2cccc(Cn3cc(-c4nc(-c5ccc(OC(F)(F)F)cc5)no4)ccc3=O)c2)CC1 [Example 36, 1-{3-[(4-Methylpiperazin-1-yl)carbonyl]benzyl}-5-{3-[4-(trifluoromethoxy)phenyl]-1,2,4-oxadiazol-5-yl}pyridin-2(1H)-one]",5 nM
4,"CN1CCN(C(=O)c2cccc(Cn3cc(-c4nc(-c5ccc(C(C)(C)C(F)(F)F)cc5)no4)ccc3=O)c2)CC1 [Example 37, 1-{3-[(4-Methylpiperazin-1-yl)carbonyl]benzyl}-5-{3-[4-(1,1,1-trifluoro-2-methylpropan-2-yl)phenyl]-1,2,4-oxadiazol-5-yl}pyridin-2(1H)-one]",10 nM
5,"O=C(c1cccc(Cn2cc(-c3nc(-c4ccc(OC(F)(F)F)cc4)no3)ccc2=O)c1)N1CCN(C2CC2)CC1 [Example 38, 1-{3-[(4-Cyclopropylpiperazin-1-yl)carbonyl]benzyl}-5-{3-[4-(trifluoromethoxy)phenyl]-1,2,4-oxadiazol-5-yl}pyridin-2(1H)-one]",3 nM
6,"CC(C)(c1ccc(-c2noc(-c3ccc(=O)n(Cc4cccc(C(=O)N5CCN(C6CC6)CC5)c4)c3)n2)cc1)C(F)(F)F [Example 39, 1-{3-[(4-Cyclopropylpiperazin-1-yl)carbonyl]benzyl}-5-{3-[4-(1,1,1-trifluoro-2-methylpropan-2-yl)phenyl]-1,2,4-oxadiazol-5-yl}pyridin-2(1H)-one]",5 nM
7,"CC(=O)OC1(c2cccc(Cn3cc(-c4nc(-c5ccc(OC(F)(F)F)cc5)no4)ccc3=O)c2)CC1 [Example 40, 1-(3-{[2-Oxo-5-{3-[4-(trifluoromethoxy)phenyl]-1,2,4-oxadiazol-5-yl}pyridin-1(2H)-yl]methyl}phenyl)cyclopropyl acetate]",2.5 nM
8,"CC(C)(O)Cc1cccc(Cn2cc(-c3nc(-c4ccc(OC(F)(F)F)cc4)no3)ccc2=O)c1 [Example 41, 1-[3-(2-Hydroxy-2-methylpropyl)benzyl]-5-{3-[4-(trifluoromethoxy)phenyl]-1,2,4-oxadiazol-5-yl}pyridin-2(1H)-one]",5 nM
9,"CC(C)(O)Cc1cccc(Cn2cc(-c3nc(-c4ccc(C(C)(C)C(F)(F)F)cc4)no3)ccc2=O)c1 [Example 42, 1-[3-(2-Hydroxy-2-methylpropyl)benzyl]-5-{3-[4-(1,1,1-trifluoro-2-methylpropan-2-yl)phenyl]-1,2,4-oxadiazol-5-yl}pyridin-2(1H)-one]",8 nM
10,"O=c1ccc(-c2nc(-c3ccc(OC(F)(F)F)cc3)no2)cn1Cc1cccc(C2(CO)CC2)c1 [Example 43, 1-{3-[1-(Hydroxymethyl)cyclopropyl]benzyl}-5-{3-[4-(trifluoromethoxy)phenyl]-1,2,4-oxadiazol-5-yl}pyridin-2(1H)-one]",10 nM
11,"CC(C)(c1ccc(-c2noc(-c3ccc(=O)n(Cc4cccc(C5(CO)CC5)c4)c3)n2)cc1)C(F)(F)F [Example 44, 1-{3-[1-(Hydroxymethyl)cyclopropyl]benzyl}-5-{3-[4-(1,1,1-trifluoro-2-methylpropan-2-yl)phenyl]-1,2,4-oxadiazol-5-yl}pyridin-2(1H)-one]",15 nM
12,"N#CC1CCN(c2cc(Cn3cc(-c4nc(-c5ccc(OC(F)(F)F)cc5)no4)ccc3=O)ccn2)CC1 [Example 45, 1-(4-{[2-oxo-5-{3-[4-(trifluoromethoxy)phenyl]-1,2,4-oxadiazol-5-yl}pyridin-1(2H)-yl]methyl}pyridin-2-yl)piperidine-4-carbonitrile]",5 nM
13,"CN1CCN(c2cc(Cn3cc(-c4nc(-c5ccc(SC(F)(F)F)cc5)no4)ccc3=O)ccn2)CC1 [Example 47, 1-{[2-(4-Methylpiperazin-1-yl)pyridin-4-yl]methyl}-5-(3-{4-[(trifluoromethyl)sulphanyl]phenyl}-1,2,4-oxadiazol-5-yl)pyridin-2(1H)-one]",40 nM
14,"CN1CCN(c2cc(Cn3cc(-c4nc(-c5ccc(C6(C(F)(F)F)CC6)cc5)no4)ccc3=O)ccn2)CC1 [Example 48, 1-{[2-(4-Methylpiperazin-1-yl)pyridin-4-yl]methyl}-5-(3-{4-[1-(trifluoromethyl)cyclopropyl]phenyl}-1,2,4-oxadiazol-5-yl)pyridin-2(1H)-one]",50 nM
15,"O=c1ccc(-c2nc(-c3ccc(OC(F)(F)F)cc3)no2)cn1Cc1ccnc(N2CCN(CC(F)(F)F)CC2)c1 [Example 49, 1-({2-[4-(2,2,2-Trifluoroethyl)piperazin-1-yl]pyridin-4-yl}methyl)-5-{3-[4-(trifluoromethoxy)phenyl]-1,2,4-oxadiazol-5-yl}pyridin-2(1H)-one]",3 nM
16,"O=c1ccc(-c2nc(-c3ccc(OC(F)(F)F)cc3)no2)cn1Cc1ccnc(N2CCN(C3CC3)CC2)c1 [Example 51, 1-{[2-(4-Cyclopropylpiperazin-1-yl)pyridin-4-yl]methyl}-5-{3-[4-(trifluoromethoxy)phenyl]-1,2,4-oxadiazol-5-yl}pyridin-2(1H)-one]",2 nM
17,"O=c1ccc(-c2nc(-c3ccc(SC(F)(F)F)cc3)no2)cn1Cc1ccnc(N2CCN(C3CC3)CC2)c1 [Example 52, 1-{[2-(4-Cyclopropylpiperazin-1-yl)pyridin-4-yl]methyl}-5-(3-{4-[(trifluoromethyl)sulphanyl]phenyl}-1,2,4-oxadiazol-5-yl)pyridin-2(1H)-one]",5 nM
18,"CC(C)(c1ccc(-c2noc(-c3ccc(=O)n(Cc4ccnc(N5CCN(C6CC6)CC5)c4)c3)n2)cc1)C(F)(F)F [Example 53, 1-{[2-(4-Cyclopropylpiperazin-1-yl)pyridin-4-yl]methyl}-5-{3-[4-(1,1,1-trifluoro-2-methylpropan-2-yl)phenyl]-1,2,4-oxadiazol-5-yl}pyridin-2(1H)-one]",4 nM
19,"O=c1ccc(-c2nc(-c3ccc(C4(C(F)(F)F)CC4)cc3)no2)cn1Cc1ccnc(N2CCN(C3CC3)CC2)c1 [Example 54, 1-{[2-(4-Cyclopropylpiperazin-1-yl)pyridin-4-yl]methyl}-5-(3-{4-[1-(trifluoromethyl)cyclopropyl]phenyl}-1,2,4-oxadiazol-5-yl)pyridin-2(1H)-one]",4 nM
20,"CC(=O)N1CCN(c2cc(Cn3cc(-c4nc(-c5ccc(SC(F)(F)F)cc5)no4)ccc3=O)ccn2)CC1 [Example 55, 1-{[2-(4-Acetylpiperazin-1-yl)pyridin-4-yl]methyl}-5-(3-{4-[(trifluoromethyl)sulphanyl]phenyl}-1,2,4-oxadiazol-5-yl)pyridin-2(1H)-one]",20 nM
21,"CNc1ccc(Cn2cc(-c3nc(-c4ccc(OC(F)(F)F)cc4)no3)ccc2=O)cn1 [Example 59, 1-{[6-(Methylamino)pyridin-3-yl]methyl}-5-{3-[4-(trifluoromethoxy)phenyl]-1,2,4-oxadiazol-5-yl}pyridin-2(1H)-one]",12.5 nM
22,"CNc1ccc(Cn2cc(-c3nc(-c4ccc(C(C)(C)C(F)(F)F)cc4)no3)ccc2=O)cn1 [Example 60, 1-{[6-(Methylamino)pyridin-3-yl]methyl}-5-{3-[4-(1,1,1-trifluoro-2-methylpropan-2-yl)phenyl]-1,2,4-oxadiazol-5-yl}pyridin-2(1H)-one]",20 nM
23,"O=c1ccc(-c2nc(-c3ccc(OC(F)(F)F)cc3)no2)cn1Cc1ccc(NCCCO)nc1 [Example 63, 1-({6-[(3-Hydroxypropyl)amino]pyridin-3-yl}methyl)-5-{3-[4-(trifluoromethoxy)phenyl]-1,2,4-oxadiazol-5-yl}pyridin-2(1H)-one]",30 nM
24,"Cc1ccc(Cn2nc(-c3nc(-c4ccc(OC(F)(F)F)cc4)no3)ccc2=O)cc1 [Example 65, 2-(4-Methylbenzyl)-6-{3-[4-(trifluoromethoxy)phenyl]-1,2,4-oxadiazol-5-yl}pyridazin-3(2H)-one]",200 nM
25,"N#CC1CCN(c2cccc(Cn3nc(-c4nc(-c5ccc(OC(F)(F)F)cc5)no4)ccc3=O)c2)CC1 [Example 66, 1-(3-{[6-oxo-3-{3-[4-(trifluoromethoxy)phenyl]-1,2,4-oxadiazol-5-yl}pyridazin-1(6H)-yl]methyl}phenyl)piperidine-4-carbonitrile]",1.5 nM
26,"CNC(=O)c1cccc(Cn2nc(-c3nc(-c4ccc(C(C)(C)C(F)(F)F)cc4)no3)ccc2=O)c1 [Example 70, N-Methyl-3-{[6-oxo-3-{3-[4-(1,1,1-trifluoro-2-methylpropan-2-yl)phenyl]-1,2,4-oxadiazol-5-yl}pyridazin-1(6H)-yl]methyl}benzamide]",60 nM
27,"CC(C)(c1ccc(-c2noc(-c3ccc(=O)n(Cc4cccc(C(=O)NCCCO)c4)n3)n2)cc1)C(F)(F)F [Example 73, N-(3-Hydroxypropyl)-3-{[6-oxo-3-{3-[4-(1,1,1-trifluoro-2-methylpropan-2-yl)phenyl]-1,2,4-oxadiazol-5-yl}pyridazin-1(6H)-yl]methyl}benzamide]",50 nM
28,"O=C(c1cccc(Cn2nc(-c3nc(-c4ccc(OC(F)(F)F)cc4)no3)ccc2=O)c1)N1CCC1 [Example 74, 2-[3-(Azetidin-1-ylcarbonyl)benzyl]-6-{3-[4-(trifluoromethoxy)phenyl]-1,2,4-oxadiazol-5-yl}pyridazin-3(2H)-one]",10 nM
